One assay deals with EL12-58 PDX tumours. In words: Neoadjuvant breast cancer PDX model of tumour recurrence. The format is in vivo, NOD-SCID mice. The note with it: after paclitaxel-induced regression and surgery; 20 mg/kg paclitaxel, 150 mg/kg pacritinib or both.
The target of the next assay is T1, JAK2 (Homo sapiens, UniProt O60674).
T1 construct: endogenous in cells; host or cells: MB468 and MB231 cells; PDX-derived tumourspheres
The experiment in a line: Western blot of phospho-JAK2 in breast cancer cells and patient-derived tumourspheres. Type of assay: cell-based. The note with it: patient-derived tumourspheres, IL-1 treatment. An excerpt: (§1) All immunoblots shown in this specification represent at least two independent experiments. In brief, cells were washed with PBS and lysed in RIPA buffer supplemented with protease and phosphatase inhibitors and further sonicated using an XL2000 Microson Ultrasonice Processor (Misonix). Equal amounts of protein extract were separated on SDS-polyacrylamided gels and transferred to PVDF membranes. Membranes were further blocked with 5% milk or BSA, and then probed with the following antibodies: anti-IRAK1 was purchased from Santa Cruz Biotechnology (Santa Cruz, Calif.; sc-7883), anti-phospho-IRAK1 (T209) was purchased from Assay Biotech (Sunnyvale, Calif.; A1074), anti-JAK2 (Danvers, Mass.; #3230) and anti-phospho-JAK2 ([…]) (Danvers, Mass.: #3774) were purchased from Cell Signaling Technology, anti-actin was purchased from Sigma Aldrich CA; A5441). For protein extraction of xenograft tumours, snap frozen samples were resuspended in RIPA buffer supplemented with protease and phosphatase inhibitors and homogenized with QIAGEN TissueLyzer II as described by the manufacturer, followed by immunoblotting as described above.
For orientation: Immunoblotting shows a protein as a band on a membrane.

Assay [1] addresses T2, IRAK1 (Homo sapiens, UniProt P51617). The experiment in a line: Western blot of phospho-IRAK1 in breast cancer cells and patient-derived tumourspheres. Type of assay: cell-based. On the set-up: endogenous in cells; host or cells: MB468 and MB231 cells; PDX-derived tumourspheres. On the procedure: Recombinant IL-1p (Cat no: 200-01B) was purchased from Peprotech (Rocky Hill, N.J.). Recombinant S100A7 (Cat no: pro-149), S100A8 (Cat no: pro-800) and S100A9 (Cat no: pro-814), were purchased from ProSpec (East Brunswick, N.J.). Cells were treated with recombinant proteins at stated concentration for 20 min before harvesting for western blot. Paclitaxel (Cat no: P-9600) was purchased from LC Lab (Woburn, Mass.).
as §1

Assay [2] addresses T2, IRAK1. Described as above. The format is cell-based. On the set-up: endogenous in cells; host or cells: MB468 and MB231 cells; PDX-derived tumourspheres. The note with it: MCF10A, long-term treatment with recombinant protein for 10 days.
Another assay relates to MCF10A. In words: Mammosphere formation assay, MCF10A. Type of assay: cell-based. The settings on record: long-term treatment with recombinant protein for 10 days. On the procedure:
(§2) Mammosphere Formation Assay PDX-derived tumoursphere cells were trypsinized and passed through 40 μm cell strainer to achieve single cell suspensions. 3×10^4 cells were seeded in 6-well ultra-low attachment plates (Corning, N.Y.; CLS3471) in serum-free DMEM/F12 supplemented with N2 and B27 (Gibco, Grand Island, N.Y.), 20 ng/ml epidermal growth factor (MACS, Auburn, Calif.), 20 ng/ml basic fibroblast growth factor (MACS, Auburn, Calif.), 0.2 μM Thiazovivin ([…] Technologies, Vancouver, BC) and penicillin/streptomycin (Gibco, Carlsbad, Calif.). For breast cancer cell lines and MCF10A cell line, 3×10^4 cells were seeded in 6-well ultra-low attachment plates in Mammocult medium (Stem Cell Technologies, Vancouver, BC, Canada), supplemented with fresh hydrocortisone (0.5 μg/ml) and heparin (1:500). Mammospheres were maintained at 37° C. with 5% CO2 and topped up with medium every 3 days. After 7-9 days, mammospheres were stained with INT (2-(4-iodophenyl)-3-(4-nitrophenyl)-5-phenyl-2H-tetrazolium chloride, Sigma-Aldrich) and quantified. Imaging and quantification were done using GelCount apparatus and associated software (Oxford Optronix, Abingdon, UK). […] Cell Proliferation Assay

Assay [3] deals with K239S mutant cells (MB436, MB468). The experiment in a line: Tumoursphere formation of K239S mutant IRAK1 cells with recombinant protein rescue. The note with it: recombinant protein added to culture medium of K239S mutant IRAK1 cells. The format is cell-based. Here is the method: as §2, with “Proliferation Assay […]” for “Proliferation Assay”
Assay [4] relates to tumourspheres from both cell lines and patient-derived samples. In words: S100A8/S100A9 recombinant protein rescue of pacritinib-treated tumourspheres. Type of assay: cell-based, human. The settings on record: recombinant protein 10 ng/ml added to culture medium; pacritinib 2.5 μM or 1 μM (method). On the procedure:
as §2

Where [5] appears, read: MB231 cells, recombinant protein as low as 1 ng/ml.

T2 sequence (P51617 whole entry): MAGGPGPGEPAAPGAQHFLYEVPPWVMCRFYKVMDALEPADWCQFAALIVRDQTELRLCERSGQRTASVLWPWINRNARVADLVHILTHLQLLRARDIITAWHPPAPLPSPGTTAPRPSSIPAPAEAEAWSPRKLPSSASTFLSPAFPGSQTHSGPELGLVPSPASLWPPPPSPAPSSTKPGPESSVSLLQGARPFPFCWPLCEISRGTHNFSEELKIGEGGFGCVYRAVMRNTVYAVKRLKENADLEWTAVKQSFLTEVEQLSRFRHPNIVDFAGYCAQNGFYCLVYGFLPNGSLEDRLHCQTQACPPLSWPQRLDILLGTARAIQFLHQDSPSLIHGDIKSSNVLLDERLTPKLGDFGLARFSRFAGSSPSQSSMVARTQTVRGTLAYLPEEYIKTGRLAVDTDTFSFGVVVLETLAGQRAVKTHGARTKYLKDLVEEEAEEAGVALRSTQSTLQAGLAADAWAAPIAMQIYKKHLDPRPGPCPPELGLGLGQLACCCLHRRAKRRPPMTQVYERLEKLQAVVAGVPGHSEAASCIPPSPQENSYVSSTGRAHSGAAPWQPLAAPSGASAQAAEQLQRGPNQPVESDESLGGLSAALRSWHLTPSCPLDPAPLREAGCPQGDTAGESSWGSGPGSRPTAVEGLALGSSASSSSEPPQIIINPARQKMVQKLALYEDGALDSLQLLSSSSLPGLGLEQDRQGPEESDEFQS
T1 sequence (O60674 whole entry): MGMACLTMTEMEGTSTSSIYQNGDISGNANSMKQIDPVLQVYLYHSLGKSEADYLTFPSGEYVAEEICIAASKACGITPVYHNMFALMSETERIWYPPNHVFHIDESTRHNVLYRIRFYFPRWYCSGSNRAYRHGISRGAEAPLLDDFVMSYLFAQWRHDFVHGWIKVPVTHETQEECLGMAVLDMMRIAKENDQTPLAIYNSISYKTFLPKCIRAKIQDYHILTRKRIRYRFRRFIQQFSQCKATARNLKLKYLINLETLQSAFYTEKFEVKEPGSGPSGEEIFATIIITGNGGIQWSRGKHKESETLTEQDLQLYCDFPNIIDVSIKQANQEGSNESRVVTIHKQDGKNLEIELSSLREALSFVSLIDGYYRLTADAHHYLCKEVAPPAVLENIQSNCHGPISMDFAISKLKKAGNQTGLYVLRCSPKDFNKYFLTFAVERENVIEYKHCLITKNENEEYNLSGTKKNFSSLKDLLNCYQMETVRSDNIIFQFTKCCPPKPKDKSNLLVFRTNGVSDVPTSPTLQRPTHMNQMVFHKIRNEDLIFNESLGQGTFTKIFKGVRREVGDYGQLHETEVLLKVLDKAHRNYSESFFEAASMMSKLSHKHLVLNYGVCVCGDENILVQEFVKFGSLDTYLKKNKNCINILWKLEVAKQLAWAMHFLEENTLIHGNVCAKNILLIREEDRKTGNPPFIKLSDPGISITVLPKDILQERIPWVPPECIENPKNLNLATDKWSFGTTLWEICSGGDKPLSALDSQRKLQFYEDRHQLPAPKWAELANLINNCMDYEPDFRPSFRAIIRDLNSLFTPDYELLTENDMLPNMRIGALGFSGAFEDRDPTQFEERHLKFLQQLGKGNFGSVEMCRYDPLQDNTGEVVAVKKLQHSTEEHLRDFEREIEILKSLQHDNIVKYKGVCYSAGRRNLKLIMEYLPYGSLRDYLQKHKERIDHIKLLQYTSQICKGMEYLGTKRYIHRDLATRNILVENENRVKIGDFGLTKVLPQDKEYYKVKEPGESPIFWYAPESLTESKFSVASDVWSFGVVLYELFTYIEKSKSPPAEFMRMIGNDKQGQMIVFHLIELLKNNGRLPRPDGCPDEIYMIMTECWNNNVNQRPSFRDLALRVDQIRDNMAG

In the case of `CC(=O)O[C@H]1C(=O)[C@@]2(C)[C@H]([C@H](OC(=O)c3ccccc3)[C@]3(O)C[C@H](OC(=O)[C@H](O)[C@@H](NC(=O)c4ccccc4)c4ccccc4)C(C)=C1C3(C)C)[C@]1(OC(C)=O)CO[C@@H]1C[C@@H]2O` [paclitaxel], in the assay with EL12-58 PDX tumours, the “tumour regrowth after surgical removal of residual tumour” value is given as “slowed down”.
As to “IL-1p: Recombinant IL-1p (Cat no: 200-01B) purchased from Peprotech”, the JAK2 phosphorylation entry in the assay with JAK2 is “remarkably induced JAK2 phosphorylation”. Also, in the assay with IRAK1 [1] (patient-derived tumourspheres, IL-1 treatment), the IRAK1 phosphorylation entry is listed as “did not have an obvious effect on IRAK1 phosphorylation”.
As for “S100A8: Recombinant S100A8 protein purchased from ProSpec (Cat no: pro-800)”, the IRAK1 phosphorylation result in the assay with IRAK1 [1] (setting [5]) is given as “able to induce IRAK1 phosphorylation”; with IRAK1 [2], “increased IRAK1 phosphorylation”. The mammosphere formation entry with MCF10A is “increased mammosphere formation”. Also, the “rescue of tumoursphere growth” value in assay [3] was “able to rescue the tumoursphere growth”. Also, in assay [4], the “rescue of pacritinib-induced tumoursphere growth inhibition” value is recorded as “effectively rescued pacritinib-induced growth inhibition”.
Taken in the same sequence, the figures for “S100A9: Recombinant S100A9 protein purchased from ProSpec (Cat no: pro-814)” were “able to induce IRAK1 phosphorylation”, “increased IRAK1 phosphorylation”, “increased mammosphere formation”, “able to rescue the tumoursphere growth” and “effectively rescued pacritinib-induced growth inhibition”.

B1: S100A7: Recombinant S100A7 protein purchased from ProSpec (Cat no: pro-149) (protein, UniProt P31151 2-101, looked up)
Protein S100-A7: SNTQAERSIIGMIDMFHKYTRRDDKIEKPSLLTMMKENFPNFLSACDKKGTNYLADVFEKKDKNEDKKIDFSEFLSLLGDIATDYHKQSHGAAPCSGGSQ
Take B1: in the assay with IRAK1 [1] (setting [5]), the IRAK1 phosphorylation result is listed as “able to induce IRAK1 phosphorylation”.

Source of the values: patent publication US11680298B2, “Method of identifying risk of cancer and therapeutic options” (Agency for Science, Technology and Research, priority 2016, dated 2023).
